The record followed here is patent publication US20230212510A1, “METHODS FOR ORGANOIDS PRODUCTION” (CITY OF HOPE, priority 2020, published 2023).

Common to all, as to assay type: cell-based, human
Assay [1] concerns HMEC organoids in microcontainers. Nature of the assay: Inhibitor treatment of contractile mammary organoids, contractions counted by time-lapse microscopy. As to conditions: for effect on contractions (FIG. 5H legend): 2 μM. The procedure:
Contraction temporal analysis: Organoid contractions were quantified either by hand or by brightness change analysis, as indicated. For brightness change analysis, time-lapse movies were taken, and the time-derivative of the whole-field image brightness was calculated. Local maxima in the time-derivative were interpreted as contractions and spot-checked by eye.
Contractile function implies the presence of contractility-associated structural proteins. […] The association between contractility and ASMA expression was tested with inhibitor experiments. Contractile organoids were treated with either latrunculin B or jasplakinolide, inhibitors of cytoskeleton dynamics that either promote or inhibit actin polymerization, […]. […] Next, organoids were treated with ML-7, an inhibitor of the smooth muscle myosin light-chain kinase that interacts with ASMA.

In the next assay the test system is estrogen receptor. Nature of the assay: Attempted induction of estrogen receptor expression, immunofluorescence. The note with it: 25 μM RepSox and 10 μM SB431542 together; drugs maintained, withdrawn, or cells mixed 1:10 with undrugged cells.
The test system of assay [2] is HMEC organoids in microcontainers. Nature of the assay: Interventions to alter organoid contraction kinetics (withdrawing media factors, adding matrix).
For assay [3] the test system is unchanged. Briefly: Prolactin treatment of organoids, luminal functional differentiation (morphology, Sudan Black).

“Also recorded” adds a separate entry of the source. Where two headings read alike, the source gives them in different places.

Take `O=S(=O)(c1cccc2c(I)cccc12)N1CCCNCC1` [ML-7]: in assay [1] (2 μM ML-7, FIG. 5I), the inhibition of contractions entry was “Partial inhibition”. Besides, the “effect on contractions (FIG. 5I legend)” value in assay [1] (n=59 organoids) is “prevented contractions”.

`Cc1cccc(-c2[nH]ncc2-c2ccc3ncccc3n2)n1` [RepSox]: the “estrogen receptor expression by immunofluorescence” value in the assay on estrogen receptor is “not detected”.

For the molecule `NC(=O)c1ccc(-c2nc(-c3ccc4c(c3)OCO4)c(-c3ccccn3)[nH]2)cc1` [SB431542], the “estrogen receptor expression by immunofluorescence” value with estrogen receptor is “not detected”.

On to `CC(C)NCC(O)c1ccc(O)c(O)c1` (stereo not drawn) [isoproterenol], for which the “effect on contraction kinetics” value in assay [2] (withdrawn from the media) was “no effect”.

On to `C/C1=C\[C@H](C)C[C@H](C)OC(=O)C[C@H](c2ccc(O)cc2)NC(=O)[C@@H](Cc2c(Br)[nH]c3ccccc23)N(C)C(=O)[C@H](C)NC(=O)[C@@H](C)C1` [jasplakinolide, Jasplakinolide], for which the “effect on contractions (FIG. 5H legend)” value in assay [1] was “prevented contractions”.

With `C/C1=C/C(=O)O[C@@H]2C[C@@H](CC[C@H](C)/C=C\CC1)O[C@@](O)([C@@H]1CSC(=O)N1)C2` [latrunculin B, Latrunculin B], the “effect on contractions (FIG. 5H legend)” value in assay [1] is “prevented contractions”.

`CC[C@H](C)[C@@H]1NC(=O)[C@H](Cc2ccc(O)cc2)NC(=O)[C@@H](N)CSSC[C@@H](C(=O)N2CCC[C@H]2C(=O)N[C@@H](CC(C)C)C(=O)NCC(N)=O)NC(=O)[C@H](CC(N)=O)NC(=O)[C@H](CCC(N)=O)NC1=O` [oxytocin]: in assay [2] (withdrawn from the media), the “effect on contraction kinetics” value is listed as “no effect”.

For the molecule cholera toxin, the “effect on contraction kinetics” value in assay [2] is “no effect”.

With “collagen I: matrix protein added to change the microenvironment”, the “effect on contraction kinetics” value in assay [2] (added at 0 to 2 mg/mL) is recorded as “no effect”.

B1: prolactin: hormone treatment tested for evidence of lactation (protein, UniProt P01236 29-227, looked up)
Prolactin: LPICPGGAARCQVTLRDLFDRAVVLSHYIHNLSSEMFSEFDKRYTHGRGFITKAINSCHTSSLATPEDKEQAQQMNQKDFLSLIVSILRSWNEPLYHLVTEVRGMQEAPEAILSKAVEIEEQTKRLLEGMELIVSQVHPETKENEIYPVWSGLPSLQMADEESRLSAYYNLLHCLRRDSHKIDNYLKLLKCRIIHNNNC
Turning to B1, in assay [3] (presence or absence of prolactin, FIG. 6A), the “organoid morphology with prolactin treatment” value is given as “no obvious differences; also recorded: no morphological changes”. For the same molecule, the “sudanophilia (Sudan Black, marker of lipophilic secretions)” value in assay [3] (prolactin treatment, FIG. 6B) is recorded as “only evident in a single organoid”.
